Test results reported in patent US11401270B2, “Alcoxyamino derivatives for treating pain and pain related conditions” (ESTEVE PHARMACEUTICALS, S.A., priority 2017, dated 2022).
Read-outs that look alike come from different tables or passages of the source.

Molecular target: Human α2δ-1 subunit of Cav2.2 calcium channel (Homo sapiens (Human), UniProt P54289)
Test: Binding Assay to Human α2δ-1 Subunit of Cav2.2 Calcium Channel
Details: human α2δ-1 enriched membranes, 15 nM [3H]-Gabapentin, read-out: Ki(nM) alpha2delta Hum
Procedure: Binding Assay to Human α2δ-1 Subunit of Cav2.2 Calcium Channel.
NSB (non specific binding) was measured by adding 10 μM pregabalin. The binding of the test compound was measured in five different concentrations. After 60 min incubation at 27° C., binding reaction was terminated by filtering through Multiscreen GF/C (Millipore) presoaked in 0.5% polyethyleneimine in Vacuum Manifold Station, followed by 3 washes with ice-cold filtration buffer containing 50 mM Tris-HCl, pH 7.4.
Filter plates were dried at 60° C. for 1 hour and 30 μl of scintillation cocktail were added to each well before radioactivity reading.

Chain of Human α2δ-1 subunit of Cav2.2 calcium channel (P54289 25-1103): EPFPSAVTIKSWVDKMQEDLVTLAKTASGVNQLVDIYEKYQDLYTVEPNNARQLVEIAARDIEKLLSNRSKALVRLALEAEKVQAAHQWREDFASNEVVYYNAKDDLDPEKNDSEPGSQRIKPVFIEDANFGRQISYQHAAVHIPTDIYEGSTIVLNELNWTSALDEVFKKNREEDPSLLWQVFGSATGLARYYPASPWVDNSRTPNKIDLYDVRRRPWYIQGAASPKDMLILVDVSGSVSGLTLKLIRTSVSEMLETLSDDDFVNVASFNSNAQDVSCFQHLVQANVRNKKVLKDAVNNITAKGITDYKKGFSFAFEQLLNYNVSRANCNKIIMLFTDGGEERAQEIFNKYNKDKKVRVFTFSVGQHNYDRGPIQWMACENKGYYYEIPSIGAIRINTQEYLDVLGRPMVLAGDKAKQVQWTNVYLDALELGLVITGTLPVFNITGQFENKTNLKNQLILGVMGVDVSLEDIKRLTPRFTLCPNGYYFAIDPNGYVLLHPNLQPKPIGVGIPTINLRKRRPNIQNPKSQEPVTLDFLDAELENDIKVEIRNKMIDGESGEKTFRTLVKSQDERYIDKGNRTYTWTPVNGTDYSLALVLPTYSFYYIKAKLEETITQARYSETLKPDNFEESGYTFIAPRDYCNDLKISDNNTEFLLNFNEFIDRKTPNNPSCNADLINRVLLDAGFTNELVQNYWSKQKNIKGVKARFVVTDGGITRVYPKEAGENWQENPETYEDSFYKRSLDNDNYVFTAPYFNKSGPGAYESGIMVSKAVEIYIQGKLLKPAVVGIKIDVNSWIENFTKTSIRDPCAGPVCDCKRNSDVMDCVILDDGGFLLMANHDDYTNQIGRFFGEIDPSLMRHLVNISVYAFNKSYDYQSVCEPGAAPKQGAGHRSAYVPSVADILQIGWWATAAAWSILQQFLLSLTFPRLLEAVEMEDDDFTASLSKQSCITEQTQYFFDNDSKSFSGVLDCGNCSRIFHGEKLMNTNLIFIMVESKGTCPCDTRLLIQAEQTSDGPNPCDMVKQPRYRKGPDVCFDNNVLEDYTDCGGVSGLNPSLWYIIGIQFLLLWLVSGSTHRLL

SMILES	Ki (Table 1)	Ki (Table 2, dual compounds)
CNCC(OCc1ccc(N2CCN(C)c3ccccc3C2=O)cc1)c1ccccc1 (centres unmarked) [Example 85, 1-Methyl-4-(4-((2-(methylamino)-1-phenylethoxy)methyl)phenyl)-1,2,3.4-tetrahydro-5H-benzo[e][1,4]diazepin-5-one]	> 3000 nM	–
CCNC[C@H]1CC(=O)N(c2cccc(O[C@@H](CCNC)c3ccccc3)c2)CCN1C [Example 22, (R)-7-((ethylamino)methyl)-1-methyl-4-(3-((S)-3-(methylamino)-1-phenylpropoxy)phenyl)-1,4-diazepan-5-one]	> 3000 nM	–
CNCC[C@@H](OCc1cccc(N2CCN(C)c3ccccc3C2=O)c1)c1cccc(F)c1 [Example 41, (R)-4-(3-((1-(3-fluorophenyl)-3-(methylamino)propoxy)methyl)phenyl)-1-methyl-1,2,3,4-tetrahydro-5H-benzo[e][1,4]diazepin-5-one]	> 3000 nM	–
CNCCC(Oc1cccc(CN2CCN(C)c3ccccc3C2=O)c1)c1ccccc1 (centres unmarked) [Example 113, 1-Methyl-4-(3-(3-(methylamino)-1-phenylpropoxy)benzyl)-1,2,3,4-tetrahydro-5H-benzo[e][1,4]diazepin-5-one]	> 3000 nM	–
CNCCC(Oc1cccc(N2CC(=O)N(C)c3ccccc3C2=O)c1)c1cccs1 (centres unmarked) [Example 51, 1-Methyl-4-(3-(3-(methylamino)-1-(thiophen-2-yl)propoxy)phenyl)-3,4-dihydro-1H-benzo[e][1,4]diazepine-2,5-dione]	> 3000 nM	–
CNCCC(OCc1ccc(CN2CCN(C)c3ccccc3C2=O)cc1)c1ccccc1 (centres unmarked) [Example 88, 1-Methyl-4-(4-((3-(methylamino)-1-phenylpropoxy)methyl)benzyl)-1,2,3,4-tetrahydro-5H-benzo[e][1,4]diazepin-5-one]	> 3000 nM	–
CNCC[C@H](OCc1cccc(N2CCN(C)c3ccccc3C2=O)c1)c1ccccc1 [Example 49]	> 3000 nM	–
CNCC[C@H](Oc1ccc(CN2CCN(C)c3nc(N(C)C)ccc3C2=O)cc1)c1cccs1 [Example 95, (S)-8-(dimethylamino)-1-methyl-4-(4-(3-(methylamino)-1-(thiophen-2-yl)propoxy)benzyl)-1,2,3.4-tetrahydro-5H-pyrido[2,3-e][1,4]diazepin-5-one]	500 to 3000 nM	–
CNCC[C@@H](Oc1ccc(CN2CCN(C)c3ncccc3C2=O)cc1)c1cccc(F)c1 [Example 150, (R)-(4-(1-(3-fluorophenyl)-3-(methylamino)propoxy)benzyl)-1-methyl-1,2,3,4-tetrahydro-5H-pyrido[2,3-e][1,4]diazepin-5-one]	500 to 3000 nM	500 to 3000 nM
CCNC1CCCN(c2cccc(O[C@@H](CCNC)c3cccs3)c2)C(=O)C1 (single isomer, unassigned) [Example 118a]	500 to 3000 nM	–
CCNCC(=O)N1CCC(=O)N(c2cccc(OC(CCNC)c3cccs3)c2)CC1 (centres unmarked) [Example 68, 1-(Ethylglycyl)-4-(3-(3-(methylamino)-1-(thiophen-2-yl)propoxy)phenyl)-1,4-diazepan-5-one]	500 to 3000 nM	–
CNCCC(Oc1cccc(N2CCN(C)c3ccccc3C2=O)c1)c1cccs1 (centres unmarked) [Example 53, 1-Methyl-4-(3-(3-(methylamino)-1-(thiophen-2-yl)propoxy)phenyl)-1,2,3,4-tetrahydro-5H-benzo[e][1,4]diazepin-5-one]	500 to 3000 nM	–
CNCC[C@@H](OCc1cccc(N2C[C@@H]3CCCN3c3ccccc3C2=O)c1)c1ccccc1 [Example 31, (S)-5-(3-(((R)-3-(methylamino)-1-phenylpropoxy)methyl)phenyl)-1.2,3,3a,4,5-hexahydro-6H-benzo[f]pyrrolo[1,2-a][1,4]diazepin-6-one]	500 to 3000 nM	–
CCNCC(=O)N1CCCN(c2cccc(OC(CCNC)c3cccs3)c2)CC1 (centres unmarked) [Example 11, 2-(Ethylamino)-1-(4-(3-(3-(methylamino)-1-(thiophen-2-yl)propoxy)phenyl)-1,4-diazepan-1-yl)ethan-1-one]	500 to 3000 nM	–
CCNC[C@@H]1CC(=O)N(c2cccc(O[C@@H](CCNC)c3ccccc3)c2)CCN1C [Example 23, (S)-7-((ethylamino)methyl)-1-methyl-4-(3-((S)-3-(methylamino)-1-phenylpropoxy)phenyl)-1,4-diazepan-5-one]	> 3000 nM	–
CNCC[C@H](OCc1cccc(N2CCCN(C)CC2)c1)c1ccccc1 [Example 12, (S)-N-methyl-3-((3-(4-methyl-1,4-diazepan-1-yl)benzyl)oxy)-3-phenylpropan-1-amine]	> 3000 nM	–
CCNC[C@@H]1CN(C)CCN(c2cccc(O[C@@H](CCNC)c3ccccc3)c2)C1=O [Example 25, (R)-6-((ethylamino)methyl)-1-methyl-4-(3-((S)-3-(methylamino)-1-phenylpropoxy)phenyl)-1,4-diazepan-5-one]	> 3000 nM	–

Continued, values first:

Ki (Table 1)	Ki (Table 2, dual compounds)	SMILES
100 to 500 nM	–	CNCCC(OCc1cccc(N2CCN(C)c3ccccc3C2=O)c1)c1ccccc1F (centres unmarked) [Example 39, 4-(3-((1-(2-Fluorophenyl)-3-(methylamino)propoxy)methyl)phenyl)-1-methyl-1,2,3,4-tetrahydro-5H-benzo[e][1,4]diazepin-5-one]
100 to 500 nM	–	CNCC[C@H](Oc1ccc(CN2CCN(C)c3ncccc3C2=O)c(C2CC2)c1)c1cccs1 [Example 128, (S)-4-(2-cyclopropyl-4-(3-(methylamino)-1-(thiophen-2-yl)propoxy)benzyl)-1-methyl-1,2,3,4-tetrahydro-5H-pyrido[2,3-e][1,4]diazepin-5-one]
100 to 500 nM	–	CNCC[C@@H](OCc1cccc(N2CCN(C)c3ccccc3C2=O)c1)c1cccs1 [Example 14, (R)-1-methyl-4-(3-((3-(methylamino)-1-(thiophen-2-yl)propoxy)methyl)phenyl)-1,2,3,4-tetrahydro-5H-benzo[e][1,4]diazepin-5-one]
100 to 500 nM	–	CNCCC(OCc1cccc(N2CCN(C)c3cc(F)cnc3C2=O)c1)c1ccccc1 (centres unmarked) [Example 27, 8-Fluoro-1-methyl-4-(3-((3-(methylamino)-1-phenylpropoxy)methyl)phenyl)-1,2,3,4-tetrahydro-5H-pyrido[3,2-e][1,4]diazepin-5-one]
500 to 3000 nM	–	CCN[C@H]1CCCCN(c2cccc(O[C@@H](CCNC)c3cccs3)c2)C1=O [Example 19, (S)-3-(ethylamino)-1-(3-((S)-3-(methylamino)-1-(thiophen-2-yl)propoxy)phenyl)azepan-2-one]
500 to 3000 nM	–	CNCCC(OCc1cccc(N2CCN(C)c3ncccc3C2=O)c1)c1ccccc1 (centres unmarked) [Example 45, 1-Methyl-4-(3-((3-(methylamino)-1-phenylpropoxy)methyl)phenyl)-1,2,3,4-tetrahydro-5H-pyrido[2,3-e][1,4]diazepin-5-one]
500 to 3000 nM	–	CCN[C@@H]1CCCCN(c2cccc(O[C@@H](CCNC)c3cccs3)c2)C1=O [Example 18, (R)-3-(ethylamino)-1-(3-((S)-3-(methylamino)-1-(thiophen-2-yl)propoxy)phenyl)azepan-2-one]
500 to 3000 nM	–	CNCCC(Oc1cccc(N2CCN(C)c3cccnc3C2=O)c1)c1cccs1 (centres unmarked) [Example 57, 1-Methyl-4-(3-(3-(methylamino)-1-(thiophen-2-yl)propoxy)phenyl)-1,2,3,4-tetrahydro-5H-pyrido[3,2-e][1,4]diazepin-5-one]
500 to 3000 nM	–	CNCCC(Oc1cccc(CN2CCN(C)c3ccccc3C2=O)c1)c1cccs1 (centres unmarked) [Example 106, 1-Methyl-4-(3-(3-(methylamino)-1-(thiophen-yl)propoxy)benzyl)-1,2,3,4-tetrahydro-5H-benzo[e][1,4]diazepin-5-one]
500 to 3000 nM	–	CCNC[C@@H]1CC(=O)N(c2cccc(O[C@@H](CCNC)c3cccs3)c2)CCN1C [Example 87, (S)-7-((ethylamino)methyl)-1-methyl-4-(3-((S)-3-(methylamino)-1-(thiophen-2-yl)propoxy)phenyl)-1,4-diazepan-5-one]
100 to 500 nM	–	CNCC[C@H](Oc1ccc(CN2CCN(C)c3ncccc3C2=O)c(C2CC2)c1)c1ccccc1 [Example 133, (S)-4-(2-cyclopropyl-4-(3-(methylamino)-1-phenylpropoxy)benzyl)-1-methyl-1,2,3,4-tetrahydro-5H-pyrido[2,3-e][1,4]diazepin-5-one]
< 100 nM	–	CNCC[C@H](Oc1ccc(CN2CCN(C)c3ncccc3C2=O)c(C(F)(F)F)c1)c1cccs1 [Example 127, (S)-1-methyl-4-(4-(3-(methylamino)-1-(thiophen-2-yl)propoxy)-2-(trifluoromethyl)benzyl)-1,2,3,4-tetrahydro-5H-pyrido[2,3-e][1,4]diazepin-5-one]
< 100 nM	–	CNCC[C@H](Oc1ccc(CN2CCN(C)c3ncccc3C2=O)c(C)c1)c1cccs1 [Example 107, (S)-1-methyl-4-(2-methyl-4-(3-(methylamino)-1-(thiophen-2-yl)propoxy)benzyl)-1,2,3,4-tetrahydro-5H-pyrido[2,3-e][1,4]diazepin-5-one]
100 to 500 nM	–	CNCCC(Oc1ccc(CN2CCN(C)CCC2=O)cc1)c1cccs1 (centres unmarked) [Example 101, 1-Methyl-4-(4-(3-(methylamino)-1-(thiophen-2-yl)propoxy)benzyl)-1,4-diazepan-5-one]
100 to 500 nM	–	CCNCCC(OCc1cccc(N2CCN(C)c3ccccc3C2=O)c1)c1ccccc1 (centres unmarked) [Example 43, 4-(3-((3-(Ethylamino)-1-phenylpropoxy)methyl)phenyl)-1-methyl-1,2,3,4-tetrahydro-5H-benzo[e][1,4]diazepin-5-one]
< 100 nM	–	CNCC[C@H](Oc1ccc(CN2CCN(C)c3ncccc3C2=O)c(C(F)(F)F)c1)c1ccccc1 [Example 130, (S)-1-methyl-4-(4-(3-(methylamino)-1-phenylpropoxy)-2-(trifluoromethyl)benzyl)-1,2,3,4-tetrahydro-5H-pyrido[2,3-e][1,4]diazepin-5-one]
100 to 500 nM	–	CNCCC(Oc1ccc(CN2CCN(C)CCC2=O)c(F)c1)c1cccs1 (centres unmarked) [Example 122, 4-(2-Fluoro-4-(3-(methylamino)-1-(thiophen-2-yl)propoxy)benzyl)-1-methyl-1,4-diazepan-5-one]
